One assay addresses T1, wild type UBA3 (NAE) (Homo sapiens, UniProt Q8TBC4).
T1 construct: His; made in house; host or cells: E. coli Rosetta (DE3), co-expression
As to the kind of experiment: NAE HTRF assay, IC50 at KM for ATP (20 μM). It counts as biochemical. The note with it: read-out: NAE WT IC50. The method, then:
(§1) The enzyme reversibility assay was run in the FLAG-NEDD8-GST-UBC12 HTRF transthiolation assay described previously (Soucy et al., 2009, Brownell et al., 2010). Final concentrations of each enzyme after dilution were 10 pM WT NAEβ, 12.5 pM A171T NAEβ, 30 pM N209K NAEβ, and 33 pM E204K/G201V NAEβ.
(§2) IC50 measurements were performed in the HTRF assay described in Example 6. Assays for each enzyme were performed at their KM for ATP (20 μM for wild type, 120 μM for the A171T mutant).
(§3) An NAE enzymatic reaction totals 50 μL and contains 50 mM HEPES (pH 7.5), 0.05% BSA, 5 mM MgCl2, 20 μM ATP, 250 μM GSH, 0.01 μM UBC12-GST, 0.075 NEDD8-Flag and 0.28 nM recombinant human NAE enzyme. The enzymatic reaction mixture, with and without compound inhibitor, is incubated at 24° C. for 90 minutes in a 384-well plate before termination with 25 μL of Stop/Detection buffer (0.1M HEPES pH 7.5, 0.05% Tween20, 20 mM EDTA, 410 mM KF, 0.53 nM Europium-Cryptate labeled monoclonal anti-FLAG M2 antibody (CisBio International) and 8.125 μg/mL PHYCOLINK goat anti-GST allophycocyanin (XL-APC) antibody (Prozyme)). After incubation for 3 hours at 24° C., quantification of the FRET is performed on the Analyst™ HT 96.384 (Molecular Devices).
Background: TR-FRET usually uses a lanthanide donor and a delayed reading to cut background.

The target in assay [1] is T2, UBA3 variant with A171T mutation (NAE) (Homo sapiens, UniProt Q8TBC4, A171T).
T2 construct: His; made in house; host or cells: E. coli Rosetta (DE3), co-expression
T2 sequence (Q8TBC4 whole entry A171T): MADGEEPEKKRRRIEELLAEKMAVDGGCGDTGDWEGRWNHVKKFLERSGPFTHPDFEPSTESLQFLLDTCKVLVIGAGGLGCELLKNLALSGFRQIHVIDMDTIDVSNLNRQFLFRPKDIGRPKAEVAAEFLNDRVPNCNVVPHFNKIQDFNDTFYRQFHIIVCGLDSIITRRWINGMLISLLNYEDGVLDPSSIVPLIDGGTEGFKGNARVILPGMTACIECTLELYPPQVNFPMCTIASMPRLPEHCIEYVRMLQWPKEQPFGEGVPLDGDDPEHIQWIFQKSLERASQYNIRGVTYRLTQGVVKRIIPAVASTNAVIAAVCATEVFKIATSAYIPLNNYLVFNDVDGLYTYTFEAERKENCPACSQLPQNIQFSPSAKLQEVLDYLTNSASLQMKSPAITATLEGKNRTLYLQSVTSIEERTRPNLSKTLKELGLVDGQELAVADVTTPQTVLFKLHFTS
T2 sequence (Q13564 whole entry partner): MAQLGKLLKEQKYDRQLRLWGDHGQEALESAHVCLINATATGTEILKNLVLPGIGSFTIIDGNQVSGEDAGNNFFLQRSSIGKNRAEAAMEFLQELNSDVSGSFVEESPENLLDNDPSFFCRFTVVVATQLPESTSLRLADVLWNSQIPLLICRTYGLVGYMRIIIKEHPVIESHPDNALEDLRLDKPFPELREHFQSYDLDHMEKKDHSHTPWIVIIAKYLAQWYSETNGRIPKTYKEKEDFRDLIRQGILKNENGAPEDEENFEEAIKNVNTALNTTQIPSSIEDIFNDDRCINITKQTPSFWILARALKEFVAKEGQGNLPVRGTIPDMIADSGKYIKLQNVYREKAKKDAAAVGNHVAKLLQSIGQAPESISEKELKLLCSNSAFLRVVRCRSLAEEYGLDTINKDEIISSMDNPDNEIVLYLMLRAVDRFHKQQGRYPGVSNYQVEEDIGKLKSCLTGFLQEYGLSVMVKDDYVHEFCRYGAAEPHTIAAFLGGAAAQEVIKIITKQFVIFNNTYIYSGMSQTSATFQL
T2 sequence (Q15843 1-76 partner limits assumed): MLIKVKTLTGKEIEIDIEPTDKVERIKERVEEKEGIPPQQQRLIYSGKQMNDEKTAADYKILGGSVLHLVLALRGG
As to the kind of experiment: NAE HTRF assay, IC50 at KM for ATP (120 μM). The note with it: for IC50: UBA3 A171T mutant, HTRF assay at KM for ATP, 120 μM; for A171T/WT: ratio of IC50 A171T mutant to IC50 wild type. It counts as biochemical. As for the experimental part: as §1, §2, §3

Assay [2] deals with MLN4924 resistant HCT-116 cell clones. As to the kind of experiment: Cell viability assay, 96 hours ATPlite, resistant clones. It counts as cell-based. The conditions noted are these: HCT-116 resistant clones, 96 hours ATPlite. The method, then: HCT-116 cells and resistant clones were treated with DMSO or various concentrations of FIG. 7A. bortezomib, FIG. 7B. doxorubicin or FIG. 7C. SN-38 for 96 hours and cell viability was assessed with ATPlite assay.
Cell line cultures were maintained using appropriate cell culture media as recommended by ATCC and as previously reported (Soucy et al., 2009, Milhollen et al., 2010). […] Cell viability assays completed using 96 hours ATPlite assay (PerkinElmer) as previously reported (Soucy et al., 2009).
(In ATP-based viability assays light output follows the ATP content of the culture.)

The test system of assay [3] is HCT-116 WT, HCT-116.1 A171T and HCT-116.4 C324Y cells. As to the kind of experiment: Drug efflux inhibitor co-incubation, ATPlite viability assay. Format: cell-based. The conditions noted are these: co-treatment with MLN4924, 96 hours. As for the experimental part:
Treatment of cells with efflux inhibitors. FIG. 8A. […] Co-incubation studies were performed with various inhibitors of drug efflux at their highest non toxic concentration.
Diypridamole (Sigma), MK571 (Tocris), GF918, K0143 (Tocris) and LY5979 were obtained from commercial sources indicated.

The source of these data is patent US20170107579A1, “E1 ENZYME MUTANTS AND USES THEREOF” (Millennium Pharmaceuticals, Inc., priority 2011, published 2017).

T1 sequence (Q8TBC4 whole entry): as the sequence (Q8TBC4 whole entry A171T) above, with T171A counted along it
T1 sequence (Q13564 whole entry partner): as the sequence (Q13564 whole entry partner) above
T1 sequence (Q15843 1-76 partner limits assumed): as the sequence (Q15843 1-76 partner limits assumed) above

On to `CNc1ncnc2c1ccn2C1CC(O)C(COS(N)(=O)=O)C1` (stereo not drawn) [Compound I-40], for which the IC50 (usually the concentration that inhibits the measured activity by half) on wild type UBA3 (NAE) worked out at 72 nM. Further, in assay [1], 630 nM corresponded to half-maximal inhibition (IC50) and the A171T/WT is recorded as 9.

For the compound `NS(=O)(=O)OCC1OC(n2cnc3c(NCc4ccccc4)ncnc32)C(O)C1O` (stereo not drawn) [Compound I-6], the IC50 on wild type UBA3 (NAE) turned out to be 0.73 nM. Further, in assay [1], the IC50 amounted to 84 nM and the A171T/WT is recorded as 115.

`CC(C)C[C@H](NC(=O)[C@H](Cc1ccccc1)NC(=O)c1cnccn1)B(O)O` [bortezomib]: the “sensitivity of MLN4924 resistant clones to other chemotherapies” value (from here on “sensitivity of MLN4924 resistant clones”) in assay [2] is “remained sensitive”.

For `COc1cc2c(cc1OC)CN(CCc1ccc(NC(=O)c3cccc4c(=O)c5cccc(OC)c5[nH]c34)cc1)CC2` [GF120918], the “sensitization of cells to MLN4924 by Pgp, BCRP and MRP2 inhibitors” value (“sensitization … BCRP and MRP2 inhibitors” below) in assay [3] is recorded as “did not sensitize”.

`CN(C)C(=O)CCSC(SCCC(=O)O)c1cccc(/C=C/c2ccc3ccc(Cl)cc3n2)c1` (stereo not drawn) [MK519]: in assay [3], the “sensitization … BCRP and MRP2 inhibitors” value is reported as “did not sensitize”.

With `Cc1ncnc2c1ccn2[C@@H]1C[C@@H](COS(N)(=O)=O)[C@@H](O)C1` [Compound I-46], the IC50 at wild type UBA3 (NAE) was 37 nM. In addition, in assay [1], the IC50 is 250 nM and the A171T/WT stood at 7.

In the case of `COc1ccc2c3c([nH]c2c1)[C@H](CC(C)C)N1C(=O)[C@H](CCC(=O)OC(C)(C)C)NC(=O)[C@@H]1C3` [Compound K0143], the “sensitization … BCRP and MRP2 inhibitors” value in assay [3] was “did not sensitize”.

`CCc1c2c(nc3ccc(O)cc13)-c1cc3c(c(=O)n1C2)COC(=O)[C@]3(O)CC` [SN-38]: in assay [2], the “sensitivity of MLN4924 resistant clones” value is “remained sensitive”.

With `COc1cccc2c1C(=O)c1c(O)c3c(c(O)c1C2=O)C[C@@](O)(C(=O)CO)C[C@@H]3O[C@H]1C[C@H](N)[C@H](O)[C@H](C)O1` [doxorubicin], in assay [2], the “sensitivity of MLN4924 resistant clones” value is “remained sensitive”.
